Results from patent publication US8614327B2 (Vertex Pharmaceuticals Incorporated, priority 2004, dated 2013).

Target: T1, ΔF508-CFTR (Homo sapiens, UniProt P13569, DEL508-508)
T1 construct: expressed in transfected cells
Assay: Membrane potential optical (FRET/VIPR) assay, identification of potentiator compounds
Assay type: cell-based
Conditions: Table 3, assay not given; for % Activity: relative efficacy
Method in brief: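 Double-addition potentiator screen: compound delivered in gluconate-substituted Cl^--free medium, membrane potential followed via CC2-DMPE/DiSBAC2(3) FRET on VIPR. Cells were ΔF508-CFTR-expressing NIH3T3 mouse fibroblasts, held 2 h at 37° C. then 24 h at 27° C. before assay.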

T1 sequence (P13569 with tags, fused parts or gaps DEL508-508): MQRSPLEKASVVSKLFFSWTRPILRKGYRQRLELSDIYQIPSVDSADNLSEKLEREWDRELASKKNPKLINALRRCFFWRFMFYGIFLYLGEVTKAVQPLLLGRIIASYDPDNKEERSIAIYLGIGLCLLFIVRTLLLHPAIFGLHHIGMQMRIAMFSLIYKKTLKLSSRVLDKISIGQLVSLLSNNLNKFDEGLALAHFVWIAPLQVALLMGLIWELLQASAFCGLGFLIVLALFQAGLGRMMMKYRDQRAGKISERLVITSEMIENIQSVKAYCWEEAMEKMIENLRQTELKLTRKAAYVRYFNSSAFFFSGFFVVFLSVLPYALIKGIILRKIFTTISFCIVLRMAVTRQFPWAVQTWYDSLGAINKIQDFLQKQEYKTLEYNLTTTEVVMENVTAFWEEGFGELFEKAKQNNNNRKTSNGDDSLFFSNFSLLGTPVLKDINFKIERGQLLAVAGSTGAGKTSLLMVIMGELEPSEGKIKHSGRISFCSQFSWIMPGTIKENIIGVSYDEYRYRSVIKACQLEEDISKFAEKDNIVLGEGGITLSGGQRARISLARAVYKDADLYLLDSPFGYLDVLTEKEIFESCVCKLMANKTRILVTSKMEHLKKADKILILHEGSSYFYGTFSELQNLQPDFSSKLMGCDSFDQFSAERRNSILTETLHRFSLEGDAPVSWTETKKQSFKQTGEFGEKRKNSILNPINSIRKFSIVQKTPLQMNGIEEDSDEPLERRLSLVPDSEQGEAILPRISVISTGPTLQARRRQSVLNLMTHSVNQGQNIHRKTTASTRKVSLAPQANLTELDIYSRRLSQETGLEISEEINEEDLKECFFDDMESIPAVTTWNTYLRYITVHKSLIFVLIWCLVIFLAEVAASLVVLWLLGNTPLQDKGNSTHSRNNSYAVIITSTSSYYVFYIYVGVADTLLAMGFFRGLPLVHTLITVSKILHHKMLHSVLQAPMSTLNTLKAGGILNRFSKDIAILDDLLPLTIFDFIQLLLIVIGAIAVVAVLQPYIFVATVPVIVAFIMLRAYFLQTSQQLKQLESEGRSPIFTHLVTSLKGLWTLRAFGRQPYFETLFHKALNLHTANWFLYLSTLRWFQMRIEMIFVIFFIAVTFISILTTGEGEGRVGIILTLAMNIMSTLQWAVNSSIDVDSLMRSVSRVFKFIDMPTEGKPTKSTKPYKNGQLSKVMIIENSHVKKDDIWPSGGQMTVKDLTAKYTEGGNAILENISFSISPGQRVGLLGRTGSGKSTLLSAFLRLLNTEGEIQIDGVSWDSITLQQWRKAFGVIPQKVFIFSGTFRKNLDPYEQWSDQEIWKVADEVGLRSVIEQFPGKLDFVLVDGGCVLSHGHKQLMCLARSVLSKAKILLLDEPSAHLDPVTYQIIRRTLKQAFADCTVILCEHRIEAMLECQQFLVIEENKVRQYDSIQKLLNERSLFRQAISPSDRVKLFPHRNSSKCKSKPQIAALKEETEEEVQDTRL

Row | SMILES | EC50 [µM] | % Activity
1 | CCCc1ccc(NC(=O)OC)cc1NC(=O)c1c[nH]c2ccccc2c1=O [Compound 471, [3-[(4-oxo-1H-quinoline-3-yl)carbonylamino]-4-propyl-phenyl]aminoformic acid methyl ester] | < 10 | ++ (between 25% to 100%)
2 | CC(C)(C)c1c[nH]c2cc(NC(=O)c3c[nH]c4ccc(F)cc4c3=O)ccc12 [Compound 554, 6-fluoro-4-oxo-N-(3-tert-butyl-1H-indol-6-yl)-1H-quinoline-3-carboxamide] | < 10 | ++ (between 25% to 100%)
3 | O=C(Nc1cccnc1Oc1ccc(F)cc1F)c1c[nH]c2ccccc2c1=O [Compound 385, N-[2-(2,4-difluorophenoxy)-3-pyridyl]-4-oxo-1H-quinoline-3-carboxamide] | – | ++ (between 25% to 100%)
4 | O=C(Nc1ccccc1-c1cc(Cl)cc(Cl)c1)c1c[nH]c2ccccc2c1=O [Compound 367, N-[2-(3,5-dichlorophenyl)phenyl]-4-oxo-1H-quinoline-3-carboxamide] | < 10 | ++ (between 25% to 100%)
5 | CN(c1ccc(F)cc1)S(=O)(=O)c1ccc2[nH]cc(C(=O)Nc3cc4[nH]ccc4cc3C(C)(C)C)c(=O)c2c1 [Compound 406, 6-[(4-fluorophenyl)-methyl-sulfamoyl]-4-oxo-N-(5-tert-butyl-1H-indol-6-yl)-1H-quinoline-3-carboxamide] | < 10 | ++ (between 25% to 100%)
6 | N#Cc1cccc(NC(=O)c2c[nH]c3ccccc3c2=O)c1 [Compound 447, N-(3-cyanophenyl)-4-oxo-1H-quinoline-3-carboxamide] | 10 to 25 | ++ (between 25% to 100%)
7 | O=C(Nc1cc2ccccc2cn1)c1c[nH]c2ccccc2c1=O [Compound 309, N-(3-isoquinolyl)-4-oxo-1H-quinoline-3-carboxamide] | 25 to 60 | + (<25%)
8 | CC(=O)Nc1cccc(NC(=O)c2c[nH]c3ccccc3c2=O)c1 [Compound 419, N-(3-acetylaminophenyl)-4-oxo-1H-quinoline-3-carboxamide] | 25 to 60 | + (<25%)
9 | CCOC(=O)c1cc2cc[nH]c2cc1NC(=O)c1c[nH]c2ccccc2c1=O [Compound 188, 6-[(4-oxo-1H-quinolin-3-yl)carbonylamino]-1H-indole-5-carboxylic acid ethyl ester] | < 10 | ++ (between 25% to 100%)
10 | Cc1ccc2c(=O)c(C(=O)Nc3cc(O)c(C(C)(C)C)cc3C(C)(C)C)c[nH]c2c1 [Compound 640, N-(5-hydroxy-2,4-ditert-butyl-phenyl)-7-methyl-4-oxo-1H-quinoline-3-carboxamide] | < 10 | +++ (>100%)
11 | CCc1ccc(NC(=O)c2c[nH]c3ccccc3c2=O)cc1 [Compound 463, N-(4-ethylphenyl)-4-oxo-1H-quinoline-3-carboxamide] | – | ++ (between 25% to 100%)
12 | CCOC(=O)Cc1c[nH]c2cc(NC(=O)c3c[nH]c4ccccc4c3=O)ccc12 [Compound 207, 2-[6-[(4-oxo-1H-quinolin-3-yl)carbonylamino]-1H-indol-3-yl]acetic acid ethyl ester] | < 10 | ++ (between 25% to 100%)
13 | O=C(Nc1ccc(S(=O)(=O)N2CCOCC2)cc1)c1c[nH]c2ccccc2c1=O [Compound 276, N-(4-morpholinosulfonylphenyl)-4-oxo-1H-quinoline-3-carboxamide] | 10 to 25 | ++ (between 25% to 100%)
14 | Nc1cc(NC(=O)c2c[nH]c3ccccc3c2=O)c(Cl)cc1Cl [Compound 242, N-(5-amino-2,4-dichloro-phenyl)-4-oxo-1H-quinoline-3-carboxamide] | < 10 | ++ (between 25% to 100%)
15 | O=C(Nc1ccc2[nH]c(=O)oc2c1)c1c[nH]c2ccccc2c1=O [Compound 152, 4-oxo-N-(2-oxo-3H-benzooxazol-6-yl)-1H-quinoline-3-carboxamide] | 25 to 60 | + (<25%)
16 | CC(C)(C)c1cc(NC(=O)c2c[nH]c3ccccc3c2=O)c(O)c(C(C)(C)C)c1 [Compound 136, N-(2-hydroxy-3,5-ditert-butyl-phenyl)-4-oxo-1H-quinoline-3-carboxamide] | < 10 | ++ (between 25% to 100%)
17 | CC(C)(C)c1ccccc1NC(=O)c1c[nH]c2ccccc2c1=O [Compound 90, 4-oxo-N-(2-tert-butylphenyl)-1H-quinoline-3-carboxamide] | < 10 | ++ (between 25% to 100%)
18 | O=C(Nc1cccc2c1Cc1ccccc1-2)c1c[nH]c2ccccc2c1=O [Compound 18, N-(9H-fluoren-1-yl)-4-oxo-1H-quinoline-3-carboxamide] | < 10 | ++ (between 25% to 100%)

Row | SMILES | EC50 [µM] | % Activity
19 | O=C(Nc1cc2[nH]ccc2cc1F)c1c[nH]c2ccccc2c1=O [Compound 77, N-(5-fluoro-1H-indol-6-yl)-4-oxo-1H-quinoline-3-carboxamide] | < 10 | ++ (between 25% to 100%)
20 | Nc1cccc(NC(=O)c2c[nH]c3ccccc3c2=O)c1 [Compound 431, N-(3-aminophenyl)-4-oxo-1H-quinoline-3-carboxamide] | 10 to 25 | ++ (between 25% to 100%)
21 | COC(=O)[C@@H]1C[C@@H](OC(C)(C)C)CN1c1ccc(NC(=O)c2c[nH]c3ccccc3c2=O)c(C(F)(F)F)c1 [Compound 550, (2S,4R)-methyl 4-tert-butoxy-1-(4-(4-oxo-1,4-dihydroquinoline-3-carboxamido)-3-(trifluoromethyl)phenyl)pyrrolidine-2-carboxylate] | < 10 | ++ (between 25% to 100%)
22 | CC(C)(C)c1c[nH]c2cc(NC(=O)c3c[nH]c4ccccc4c3=O)c(C(F)(F)F)cc12 [Compound 508, 4-oxo-N-[3-tert-butyl-5-(trifluoromethyl)-1H-indol-6-yl]-1H-quinoline-3-carboxamide] | – | ++ (between 25% to 100%)
23 | O=C(Nc1ccc(-c2ccccc2CNC(=O)C(F)(F)F)cc1)c1c[nH]c2ccccc2c1=O [Compound 224, 4-oxo-N-[4-[2-[(2,2,2-trifluoroacetyl)aminomethyl]phenyl]phenyl]-1H-quinoline-3-carboxamide] | < 10 | ++ (between 25% to 100%)
24 | CC(C)(C)OC(=O)N1CCCc2ccc(NC(=O)c3c[nH]c4ccccc4c3=O)cc21 [Compound 183, 7-[(4-oxo-1H-quinolin-3-yl)carbonylamino]-1,2,3,4-tetrahydroquinoline-1-carboxylic acid tert-butyl ester] | < 10 | ++ (between 25% to 100%)
25 | O=C(Nc1ccc2c(c1)S(=O)(=O)C=C2)c1c[nH]c2ccccc2c1=O [Compound 446, N-(1,1-dioxobenzothiophen-6-yl)-4-oxo-1H-quinoline-3-carboxamide] | 25 to 60 | + (<25%)
26 | CC1(c2cc(F)c(NC(=O)c3c[nH]c4ccc(F)cc4c3=O)cc2O)CCCCC1 [Compound 218, 6-fluoro-N-[2-fluoro-5-hydroxy-4-(1-methylcyclohexyl)-phenyl]-4-oxo-1H-quinoline-3-carboxamide] | < 10 | ++ (between 25% to 100%)
27 | Cc1ccc2[nH]cc(C(=O)Nc3ccc(N4CCCC4C)cc3C(F)(F)F)c(=O)c2c1 (stereo not shown) [Compound 503, 6-methyl-N-[4-(2-methylpyrrolidin-1-yl)-2-(trifluoromethyl)phenyl]-4-oxo-1H-quinoline-3-carboxamide] | < 10 | ++ (between 25% to 100%)
28 | CC(C)(C)OC(=O)NC1CCCc2ccc(NC(=O)c3c[nH]c4ccccc4c3=O)cc21 (stereo not shown) [Compound 273, [7-[(4-oxo-1H-quinolin-3-yl)carbonylamino]tetralin-1-yl]aminoformic acid tert-butyl ester] | < 10 | +++ (>100%)
29 | O=C(Nc1cc2[nH]ccc2cc1C(F)(F)F)c1c[nH]c2cccc(O)c2c1=O [Compound 494, 5-hydroxy-4-oxo-N-[5-(trifluoromethyl)-1H-indol-6-yl]-1H-quinoline-3-carboxamide] | < 10 | ++ (between 25% to 100%)
30 | COc1cc2c(=O)c(C(=O)Nc3cc4[nH]ccc4cc3C(C)(C)C)c[nH]c2cc1F [Compound 611, 7-fluoro-6-methoxy-4-oxo-N-(5-tert-butyl-1H-indol-6-yl)-1H-quinoline-3-carboxamide] | < 10 | +++ (>100%)
31 | O=C(Nc1ccccc1N1CCCC1)c1c[nH]c2ccccc2c1=O [Compound 295, 4-oxo-N-(2-pyrrolidin-1-ylphenyl)-1H-quinoline-3-carboxamide] | < 10 | ++ (between 25% to 100%)
32 | COC(=O)Oc1c(NC(=O)c2c[nH]c3ccccc3c2=O)cc(F)cc1C(C)(C)C [Compound 288, N-(5-fluoro-2-methoxycarbonyloxy-3-tert-butyl-phenyl)-4-oxo-1H-quinoline-3-carboxamide] | < 10 | ++ (between 25% to 100%)
33 | CC(C)(C)OC(=O)Nc1ccc(C(C)(C)C)c(NC(=O)c2c[nH]c3ccccc3c2=O)c1 [Compound 353, [3-[(4-oxo-1H-quinolin-3-yl)carbonylamino]-4-tert-butyl-phenyl]aminoformic acid tert-butyl ester] | < 10 | ++ (between 25% to 100%)
34 | CC1(c2cc(F)c(NC(=O)c3cnc4ccccc4c3O)cc2O)CCCCCCC1 [Compound 403, N-[2-fluoro-5-hydroxy-4-(1-methylcyclooctyl)-phenyl]-4-hydroxy-quinoline-3-carboxamide] | < 10 | ++ (between 25% to 100%)
35 | CC(C)(C)c1cc(C(C)(C)C)c(NC(=O)c2c[nH]c3cc(O)ccc3c2=O)cc1O [Compound 652, 7-hydroxy-N-(5-hydroxy-2,4-ditert-butyl-phenyl)-4-oxo-1H-quinoline-3-carboxamide] | < 10 | ++ (between 25% to 100%)
